Starred links: 1 amine or outer side, 2 acyl side, 3 side chain; linkers in the order of their positions; H or OH if unused. Positions of bridges follow the written chain, without caps; N, C: chain ends. Non-standard residues stand in square brackets, D forms with d. Residues, ends and D or L forms follow the SMILES beside them. No end group written: not given here. Trp(2-yl) = O=C([C@H](Cc1c([*:3])[nH]c2ccccc12)N[*:1])[*:2]; {TAMRA} = TAMRA dye attached N-terminally via two o linkers; {Cys} = C-terminal o linker then cysteine amide; Leu(4R-OH,5-OH) = C[C@](O)(CO)C[C@H](N)C(=O)O; cisHyp = O=C(O)[C@@H]1C[C@H](O)CN1
Key:
HeLa cells [1] = conditions: literature report; cited from earlier work
HeLa cells [2] = test: Cytotoxicity assay (CellTiter 96 AQueous One colorimetric); type: cell-based, human; conditions: concentrations up to 16 μM, 24 hrs, physiological conditions
Description: (§1) The peptide's cytotoxicity and its ability to induce membrane leakage was investigated. […] Membrane leakage was tested by incubation of HeLa cells at various concentrations of peptide (up to 10 μM) at pH 7.4 and 6.5 for 1 hr, followed by the addition of cell-impermeable agents: Phalloidin-TRITC and nuclear-staining SYTOX-Orange. […] The uptake of Phalloidin-TRITC or SYTOX-Orange was 10 times less than the uptake in cells treated with triton, which used for cell membrane permeabilization.
Cytotoxicity was tested using a standard colorimetric assay according to an established protocol provided by Promega, Inc. HeLa cells were loaded in the wells of 96 well plates (20,000 cells per well), incubated for 24 hours in DMEM supplemented with 10% FBS, 100 units/ml penicillin, 0.1 mg/ml streptomycin, 2 mM glutamine in a humidified atmosphere of 5% CO2 and 95% air at 37° C. The growth medium was then replaced with the same medium but containing 1% of FBS and increasing amounts of pHLIP (0.5, 1, 2, 4, 8 and 16 μM). After 24 hours of incubation, the solution was replaced with DMEM and a colorimetric reagent (CellTiter 96 AQueous One Solution Assay) was added for 1 hour followed by measuring absorbance at 490 nm in the plate-reader. All samples were prepared in triplicate.

HeLa cells [3] = test: Membrane leakage assay with cell-impermeable Phalloidin-TRITC and SYTOX-Orange; type: cell-based, human; conditions: peptide up to 10 μM, 1 hr, pH 6.5 or 7.4
Description: as §1
HeLa cells were loaded in 96 well plates (2,000 cells per well), incubated for 24 hours in DMEM supplemented with 10% FBS, 100 units/ml penicillin, 0.1 mg/ml streptomycin, 2 mM glutamine in a humidified atmosphere of 5% CO2 and 95% air at 37° C. The growth medium was then replaced with PBS buffer containing 1 mM CaCl2 and 1 mM MgCl2 at pH7.4 or 6.5 and increasing amounts of the peptide (0.5, 2, 5 and 10 μM). After 1 hour, 2 μM of Phalloidin-TRITC and 0.5 μM of SYTOX-Orange (Molecular Probes) were added for 10 min and, then, washed with PBS buffer, pH7.4. The rhodamine fluorescence was measured at 580 nm with excitation at 544 nm by plate-reader. The cell membrane was subsequently disrupted by adding 0.5% Triton-100 and a new portion of the 2 μM of Phalloidin-TRITC and 0.5 μM of SYTOX-Orange followed by washing with PBS. The fluorescence signal was detected before and after washing, respectively. […]

mice = test: Toxicity study in mice, single intravenous injection; type: in vivo, mouse; conditions: single intravenous injection 4 mg/kg, female and male mice, observed 6 weeks
Description: Preliminary toxicity study was carried out. 100 μl of 150 μM of peptide was given as a single injection in vein tail to 4 female C3D2F1 and 4 male C57/B1 mice. The final concentration was 4 mg/kg. Mice were observed by a veterinarian the day after an injection and during the next 6 weeks.

HeLa cells [4] = test: pH-dependent delivery of dansyl dye into live HeLa cells (fluorescence microscopy); type: cell-based, human; conditions: dye alone, without peptide
Description: pHLIP conjugated via a disulfide bond to dansyl dye (FIG. 3a) was tested for delivery of the dye into live HeLa cells at different pHs (FIG. 3b). The cells were incubated with the fluorescently-labeled peptide for 15 min at pH 5.5, 6.5, 7.0 or 7.4 and then washed at pH 7.4 to remove any reversibly bound peptide. […] The relative uptakes were 18%, 48%, 78% and 100% at pH7.4, 7.0, 6.5 and pH5.5, respectively.
For the fluorescence microscopy studies, the cells were grown in 35 mm dishes with 10 mm glass bottom windows coated with collagen. Cells were washed with PBS buffer containing 1 mM CaCl2 and 1 mM MgCl2 with pH 5.5, 6.5, 7.0 or 7.4 and then incubated in PBS at the experimental pH in the absence or presence of varied concentrations (0.1-7 μM) of the pHLIP-S-S-dansyl, pHLIP-dye (TexasRed or Rhodamine), pHLIP-S-S-Phalloidin-TRITC, pHLIP-Phalloidin-TRITC or pHLIP-S-S-PNA-TAMRA constructs. The medium pH was measured before and after incubation. The time of incubation was varied from 15 to 60 min. […] Fluorescent images were taken using an inverted epi-fluorescence microscope Olympus IX71. […] Each time fluorescence microscopy experiments were performed and observed the translocation of cargo by pHLIP, it was verified that the labeled cells were alive by using of dead cell marker SYTOX-Green (Molecular Probes).

Human tumor MDA-MB-231 = test: Whole-body fluorescence imaging of nude mice bearing MDA-MB-231 tumor; type: in vivo, mouse; conditions: 100 μl of 50 μM into tail vein, 3 mm tumor; time point not stated
Description: To study the pHLIP distribution in vivo, covalently attached to the pHLIP near […] infrared fluorescent dye Cy5.5 was injected into mice bearing tumor and performed whole-body fluorescence imaging. Human tumor MDA-MB-231 was originated by injection of tumor cells (2×10^7 cells/flank/0.2 ml) in the right flank of adult athymic female nude mice. When the tumor reached the size of 3 mm in diameter, 100 μl of 50 μM of Cy5.5 alone or Cy5.5 covalently attached to the pHLIP was given as a single injection into vein tail. The imaging was performed immediately, after 1, 2, 4 hour and next day after 24 hours (FIGS. 9 and 10). The dye and peptide-dye accumulated in liver and kidney, the organs, which usually readily absorb any compounds. The ratios of (liver+kidney)/tumor were 5.9 and 3.6 in mice to which dye alone and pHLIP-dye were injected accumulation for mice. […] The accumulation of pHLIP-Cy5.5 in tumor was in 1.6 times higher than accumulation of dye alone. The ration of (liver+kidney)/tumor was 1.6 and 2.6 for pHLIP-Cy5.5 and Cy5.5 alone, respectively.
Human breast adenocarcinoma MDA-MB-231 (HTB-26, ATCC) cells was cultured in Leibovitz's L-15 medium supplemented with 10% fetal bovine serum, 100 units/ml penicillin, 0.1 mg/ml streptomycin, 2 mM glutamine in humidified atmosphere of 5% CO2 and 95% air at 37° C. […]

actin filaments = conditions: cited from earlier work
HeLa cells [5] = test: Translocation and release of Phalloidin-TRITC in HeLa cells (fluorescence microscopy of actin filaments); type: cell-based, human; conditions: pH 6.0-7.4, in the presence or absence of peptide (not conjugated)
Description: To test the ability of pHLIP to translocate peptides across the cell membrane a water soluble cyclic peptide, phalloidin, from the Amanita phalloicles mushroom was chosen. […] Fluorescent phalloidin is commonly used to label actin filaments in permealized cells. Actin filaments stained with fluorescent phalloidin have an easily recognizable filamentous pattern, which cannot be mistaken for the other cellular structures, organelles or membrane staining. Therefore the delivery of fluorescent phalloidin by pHLIP into live cells can easily be verified by fluorescence microscopy. Fluorescently labeled phalloidin (Phalloidin-TRITC) via an S-S bond to the C-terminus of pHLIP was conjugated using a bifunctional cross-linker. Cells were incubated with a pHLIP-S-S-Phalloidin-TRITC cleavable construct at different pHs and subsequently washed with cell culture medium solution, pH 7.4. […]
For the fluorescence microscopy studies, the cells were grown in 35 mm dishes with 10 mm glass bottom windows coated with collagen. […] The medium pH was measured before and after incubation. […] Fluorescent images were taken using an inverted epi-fluorescence microscope Olympus IX71. […] Each time fluorescence microscopy experiments were performed and observed the translocation of cargo by pHLIP, it was verified that the labeled cells were alive by using of dead cell marker SYTOX-Green (Molecular Probes).

HeLa cells [6] = test: Translocation of PNA into HeLa cells (fluorescence microscopy); type: cell-based, human; conditions: PNA without pHLIP, pH 7.4 or 6.5 (data not shown)

For `C/C1=C\[C@H](C)C[C@H](C)OC(=O)C[C@H](c2ccc(O)cc2)NC(=O)[C@@H](Cc2c(Br)[nH]c3ccccc23)N(C)C(=O)[C@H](C)NC(=O)[C@@H](C)C1` [Jasplakinolide], the “multinucleation of cells (reported)” value (HeLa cells [1]) is given as “appearance of multinucleated cells”.

In the case of “AAEQNPIYWARYADWLFTTPLLLLDLALLVDADEGTCG [pHLIP]”, the cell viability (HeLa cells [2]) is reported as “does not affect cell viability”, the “uptake of Phalloidin-TRITC or SYTOX-Orange in peptide-treated cells” value (HeLa cells [3]) is reported as “no increase in uptake” and the “uptake of Phalloidin-TRITC or SYTOX-Orange relative to cells treated with triton” value (HeLa cells [3]) is reported as 10 times less. The “physiological and behavioral changes” value (mice) was “No physiological and behavioral changes”.

With dansyl the penetration of cells (HeLa cells [4]) was “does not penetrate cells”.

In the case of `CCN1\C(=C/C=C/C=C/C2=[N+](CCCCCC(=O)O)c3ccc4c(S(=O)(=O)O)cc(S(=O)(=O)O)cc4c3C2(C)C)C(C)(C)c2c1ccc1c(S(=O)(=O)[O-])cc(S(=O)(=O)O)cc21` [Cy5.5], the “ratio of (liver+kidney)/tumor, first statement” value (Human tumor MDA-MB-231) is reported as 5.9 and the “ratio of (liver+kidney)/tumor, second statement” value (Human tumor MDA-MB-231) is reported as 2.6.

In the case of `C[C@@H]1NC(=O)[C@H](C[C@@](C)(O)CO)NC(=O)[C@@H]2Cc3c([nH]c4ccccc34)SC[C@H](NC(=O)[C@@H]([C@H](C)O)NC1=O)C(=O)N1C[C@@H](O)C[C@H]1C(=O)N[C@@H](C)C(=O)N2` [Phalloidin] (cyclo(A[dT]C[cisHyp]A[Trp(2-yl)][Leu(4R-OH,5-OH)]); thioether 3-6), the “lowering of the critical concentration for actin polymerization” value (actin filaments) is given as “up to 30 fold”.

In the case of Phalloidin-TRITC, the “fluorescent staining of actin filaments” value (HeLa cells [5]) is reported as “did not give fluorescent staining of actin filaments”.

With “TAMRA-o-o-CATAGTATAAGT-o-Cys-NH2 (all peptide nucleic acid (PNA), 5' {TAMRA}, 3' {Cys}) [PNA-TAMRA]” the “translocation through the cell membrane” value (HeLa cells [6]) was “No translocation”.

Source: patent US9676823B2, “Selective delivery of molecules into cells or marking of cells in diseased tissue regions using environmentally sensitive transmembrane peptide” (priority 2005, dated 2017)
